Reference: patent US10864196B2, “Modulators of the integrated stress pathway” (Calico Life Sciences LLC, priority 2016, dated 2020)

system: HEK293T cells carrying the ATF4 luciferase reporter; test: ATF4-Luc assay (in vitro model of VWMD); assay type: cell-based; conditions: Homo sapiens, HEK-293T, 1 μg/mL tunicamycin, 7 hours, One Glo luminescence
Procedure: In order to test exemplary compounds of the invention in a cellular context, a stable VWMD cell line was first constructed. The ATF4 reporter was prepared by fusing the human full-length ATF4 5′-UTR (NCBI Accession No. BC022088.2) in front of the firefly luciferase (FLuc) coding sequence lacking the initiator methionine as described in Sidrauski et al (eLife 2013). The construct was used to produce recombinant retroviruses using standard methods and the resulting viral supernatant was used to transduce HEK293T cells, which were then subsequently selected with puromycin to generate a stable cell line.
HEK293T cells carrying the ATF4 luciferase reporter were plated on polylysine coated 384-well plates (Greiner Bio-one) at 30,000 cells per well. Cells were treated the next day with 1 μg/mL tunicamycin and 200 nM of a compound of Formula (I) for 7 hours. Luminescence was measured using One Glo (Promega) as specified by the manufacturer. Cells were maintained in DMEM with L-glutamine supplemented with 10% heat-inactivated FBS (Gibco) and Antibiotic-Antimycotic solution (Gibco).
Table 2 below summarizes the EC50 data obtained using the ATF4-Luc assay for exemplary compounds of the invention.

First: O=C(COc1ccc(Cl)cc1)NC12CC(c3nc(COc4ccc(Cl)c(Cl)c4)no3)(C1)C2 [Compound 158, 2-(4-chlorophenoxy)-N-(3-{3-[(3,4-dichlorophenoxy)methyl]-1,2,4-oxadiazol-5-yl}bicyclo[1.1.1]pentan-1-yl)acetamide]
Second: O=C(COc1ccc(Cl)c(F)c1)NC12CC(c3nc(COc4ccc(C5CC5)nc4)no3)(C1)C2 [Compound 163, 2-(4-chloro-3-fluorophenoxy)-N-[3-(3-{[(6-cyclopropylpyridin-3-yl)oxy]methyl}-1,2,4-oxadiazol-5-yl)bicyclo[1.1.1]pentan-1-yl]acetamide]
The EC50 of the first is lower: less than 50 nM for the first, 250 to 1000 nM for the second.

O=C(COc1ccc(Cl)c(F)c1)NC12CC(c3nc(COc4cncc(C(F)(F)F)c4)no3)(C1)C2 [Compound 159, 2-(4-chloro-3-fluorophenoxy)-N-{3-[3-({[5-(trifluoromethyl)pyridin-3-yl]oxy}methyl)-1,2,4-oxadiazol-5-yl]bicyclo[1.1.1]pentan-1-yl}acetamide] and O=C(COc1ccc(Cl)c(F)c1)NC12CC(c3nc(COc4cnc(C(F)(F)F)c(Cl)c4)no3)(C1)C2 [Compound 162, 2-(4-chloro-3-fluorophenoxy)-N-{3-[3-({[5-chloro-6-(trifluoromethyl)pyridin-3-yl]oxy}methyl)-1,2,4-oxadiazol-5-yl]bicyclo[1.1.1]pentan-1-yl}acetamide] fall in the same range of EC50: 50 to 250 nM for the first, 50 to 250 nM for the second.

O=C(COc1ccc(Cl)c(F)c1)NC12CC(c3nc(COc4ccnc(C(F)(F)F)c4)no3)(C1)C2 [Compound 160, 2-(4-chloro-3-fluorophenoxy)-N-{3-[3-({[2-(trifluoromethyl)pyridin-4-yl]oxy}methyl)-1,2,4-oxadiazol-5-yl]bicyclo[1.1.1]pentan-1-yl}acetamide] and O=C(COc1ccc(Cl)c(F)c1)NC12CC(c3nc(COc4ccc(C(F)(F)F)nc4)no3)(C1)C2 [Compound 161, 2-(4-chloro-3-fluorophenoxy)-N-{3-[3-({[6-(trifluoromethyl)pyridin-3-yl]oxy}methyl)-1,2,4-oxadiazol-5-yl]bicyclo[1.1.1]pentan-1-yl}acetamide] fall in the same range of EC50: 50 to 250 nM for the first, 50 to 250 nM for the second.

COCc1nnc([C@]23CC[C@](NC(=O)COc4ccc(Cl)c(F)c4)(CC2)CC3=O)o1 [Compound 164, 2-(4-chloro-3-fluorophenoxy)-N-{4-[5-(methoxymethyl)-1,3,4-oxadiazol-2-yl]-3-oxobicyclo[2.2.2]octan-1-yl}acetamide] and COCc1nnc(C23CCC(NC(=O)COc4ccc(Cl)c(F)c4)(CC2)CC3O)o1 (stereo not shown) [Compound 165, 2-(4-chloro-3-fluorophenoxy)-N-{3-hydroxy-4-[5-(methoxymethyl)-1,3,4-oxadiazol-2-yl]bicyclo[2.2.2]octan-1-yl}acetamide] fall in the same range of EC50: 250 to 1000 nM for the first, 250 to 1000 nM for the second.

First: O=C(COc1ccc(Cl)c(F)c1)NC12CCC(c3nc(COc4ccc(C(F)(F)F)nc4)no3)(CC1)C(O)C2 (stereo not shown) [Compound 166, 2-(4-chloro-3-fluorophenoxy)-N-{3-hydroxy-4-[3-({[6-(trifluoromethyl)pyridin-3-yl]oxy}methyl)-1,2,4-oxadiazol-5-yl]bicyclo[2.2.2]octan-1-yl}acetamide]
Second: O=C(COc1ccc(Cl)c(F)c1)NC12CCC(c3nc(COc4ccnc(C(F)(F)F)c4)no3)(CC1)C(O)C2 (stereo not shown) [Compound 167, 2-(4-chloro-3-fluorophenoxy)-N-{3-hydroxy-4-[3-({[2-(trifluoromethyl)pyridin-4-yl]oxy}methyl)-1,2,4-oxadiazol-5-yl]bicyclo[2.2.2]octan-1-yl}acetamide]
The EC50 of the first is higher: 250 to 1000 nM for the first, 50 to 250 nM for the second.

First: O=C(COc1ccc(Cl)c(F)c1)NC12CC(c3nc(COc4ccc(Cl)c(F)c4)c[nH]3)(C1)C2 [Compound 168, 2-(4-chloro-3-fluorophenoxy)-N-(3-{4-[(4-chloro-3-fluorophenoxy)methyl]-1H-imidazol-2-yl}bicyclo[1.1.1]pentan-1-yl)acetamide]
Second: O=C(COc1ccc(Cl)c(F)c1)NC12CC(c3nc(COc4ccc(C(F)(F)F)nc4)c[nH]3)(C1)C2 [Compound 169, 2-(4-chloro-3-fluorophenoxy)-N-{3-[4-({[6-(trifluoromethyl)pyridin-3-yl]oxy}methyl)-1H-imidazol-2-yl]bicyclo[1.1.1]pentan-1-yl}acetamide]
The EC50 of the first is lower: less than 50 nM for the first, greater than 2000 nM for the second. The first is the more potent here.

In the case of O=C(COc1ccc(Cl)c(F)c1)NC12CCC(c3nnc(Oc4ccc(Cl)c(F)c4)o3)(CC1)C(O)C2 (stereo not shown) [Compound 170, 2-(4-chloro-3-fluorophenoxy)-N-{4-[5-(4-chloro-3-fluorophenoxy)-1,3,4-oxadiazol-2-yl]-3-hydroxybicyclo[2.2.2]octan-1-yl}acetamide], the EC50 is reported as less than 50 nM.
